Experimental data reported in patent US20250205257A1 (priority 2022, published 2025).

Legend:
[1] = system: recombinant ASFV genotype II Georgia virus, GeorgiaDMGFB; type: cell-based, African swine fever virus
ASFV BOT 1/99 = assay: microbe, parasite or virus in culture; type: cell-based; conditions: African swine fever virus, PBMC, 72 h, read-out: EC50 BOT P1/99
ASFV KAB6/2 = assay: microbe, parasite or virus in culture; type: cell-based; conditions: African swine fever virus, PBMC, 72 h, read-out: EC50 KAB6/2
ASFV Magadi w/hog 9 = assay: microbe, parasite or virus in culture; type: cell-based; conditions: African swine fever virus, PBMC, 72 h, read-out: EC50 Magadi w/hog 9
[2] = pig, in vivo
[3] = system: ASFV strain Georgia 2007/1; conditions: pig, in vivo
in vitro = conditions: pig, CC50 (50% cytotoxic concentration)
porcine kidney cells = conditions: pig
in vivo = conditions: pig
[4] = system: ASFV strain Georgia 2007/1; conditions: pig, in vivo, po, 30 mg/kg
ASFV Georgia 2007/1 = assay: microbe, parasite or virus in culture; type: cell-based; conditions: African swine fever virus, PBMC, 72 h, read-out: EC50 Georgia 2007/1

CC(C)(C)C(=O)OCOP1(=O)CO[C@@H](Cn2ccc(N)nc2=O)CO1 (stereo partly drawn) [Compound 1, Pivaloyloxymethyl ester of cHPMPC]
efficacy compared to cHPMPC [1]: intermediate

CC(C)OC(=O)OCOP1(=O)CO[C@@H](Cn2ccc(N)nc2=O)CO1 (stereo partly drawn) [Compound 2, Isopropyloxycarbonyloxymethyl ester of cHPMPC]
efficacy compared to cHPMPC [1]: intermediate

CCCCCCCCCCCCCCCCOCCCOP1(=O)CO[C@@H](Cn2ccc(N)nc2=O)CO1 (stereo partly drawn) [Compound 3, Hexadecyloxypropyl ester of cHPMPC]
efficacy compared to cHPMPC [1]: greatly increased efficacy | selectivity indices [1]: thousands

CCCCCCCCCCCCCCCCCCOCCOP1(=O)CO[C@@H](Cn2ccc(N)nc2=O)CO1 (stereo partly drawn) [Compound 4, Octadecyloxyethyl ester of cHPMPC]
efficacy compared to cHPMPC [1]: greatly increased efficacy | selectivity indices [1]: thousands

CC(C)OC(=O)[C@H](C)NP1(=O)CO[C@@H](Cn2ccc(N)nc2=O)CO1 (stereo partly drawn) [Compound 5, Isopropyl L-alaninyl cHPMPC]
efficacy compared to cHPMPC [1]: intermediate

Nc1ccn(C[C@H]2COP(=O)(O)CO2)c(=O)n1 [cHPMPC, cyclic cidofovir]
EC50 (ASFV BOT 1/99): 300 ± 200 nM | EC50 (ASFV KAB6/2): 590 ± 80 nM | EC50 (ASFV Magadi w/hog 9): 110 ± 50 nM | concentration above which mNeon Green expression was not observed [1]: > 0.05 µM | other adverse events [2]: No other adverse events were recorded | tolerability [2]: well tolerated | injection site observation 1 hour post intravenous dosing ([2]; iv, 5 mg/kg): redness at injection site was observed in all pigs | injection site observation 4 hour post intravenous administration ([2]; iv, 5 mg/kg): no injection site reactions were observed | pigs survived until the end of the study (day 27 post ASFV challenge) with no ASF disease [3]: 2 pigs | ASFV genome copies in blood on termination days compared to control pigs ([3]; po, 30 mg/kg): reduced | ASFV genome copies in swab samples on termination days compared to control pigs ([3]; po, 30 mg/kg): reduced | median survival ([3]; po, 30 mg/kg): 19.5 days | pigs euthanized at moderate severity humane endpoint on day 6 showing reduced ASF disease ([3]; po, 30 mg/kg): 2 pigs | pigs euthanized at moderate severity humane endpoint on day 19 and day 20 with delayed and reduced ASF disease ([3]; po, 30 mg/kg): 2 pigs | CC50 (in vitro): 47000 nM | CC50 (porcine kidney cells): 59000 nM | half-life (in vivo; iv, 5 mg/kg): 3.31 h | AUC (in vivo; iv, 5 mg/kg, AUC, analyte VV03-0035): 71.6 µM·h | AUC (in vivo; iv, 5 mg/kg, exposure (AUC) of VV03-0035, range across pigs): 58 to 95.4 µM·h | half-life (in vivo; po, 25 mg/kg): 3.51 h | AUC (in vivo; po, 25 mg/kg, AUC, analyte VV03-0035): 11.6 µM·h | AUC (in vivo; po, 25 mg/kg, exposure (AUC) of VV03-0035, range across pigs): 2.32 to 23.7 µM·h | ASF viraemia [4]: significantly reduced | ASF viral genome copies in organs (lungs, spleens, lymph nodes) compared to placebo [4]: significantly reduced | median survival / median day of death [4]: 8 days | EC50 (ASFV Georgia 2007/1): 310 ± 170 nM
